Experimental data reported in patent US20110263454A1, “Methods of Identifying Functional Characteristics of Promoters, Transcription Modifying Proteins and Transcription Modulating Agents” (Salk Institute for Biological Studies, priority 2008, published 2011).

Experiments:
mCAR promoter = assay: NHR-promoter luciferase screen, mCAR promoter; assay type: cell-based, mouse; conditions: for luciferase activity normalized to lacZ activity and to a control, mCAR: mCAR promoter-luciferase, CV-1 cells, NHR +/- ligand, control = 1.00; for Luc. act., normalized to lacZ / Normalized Luc. act., normalized to control: mCAR promoter, HR/ligand component
Protocol: (§1) The use, feasibility, and reproducibility of the functional NHR-promoter screen in a 48-well format have been tested validated. Briefly, there were co-expressed 50 ng of each NHR/NHR homodimer or NHR/RXR heterodimer with 100 ng promoter/luciferase construct and 50 ng of LacZ (as a control for transfection efficiency) in CV-1 cells using Fugene HD (Roche) as a transfection reagent (alternatively or additionally, a CMV-YFP construct can be used as a transfection control). Each of the nuclear hormone receptors that were used in these experiments was cloned into a pcDNA3.1 vector and comprised a C-terminally linked V5H6 tag. Twenty-four hours after transfection, appropriate ligands were added, where applicable, (see Table 5 for various ligands and concentrations and after 48 hrs, samples were assayed for luciferase and LacZ activity. To measure for luciferase activity 15 ul of sample was added to 30 ul of luciferase buffer (20 mM tricine, 1.07 mM MgCarbonate, 2.67 mM MgSulfate, 0.1 mM Naz-EDTA, 5 mM DTT, 5 mM ATP, 0.15 mg/ml CoA, 0.5 mM Luciferin), mixed briefly, and run in a Perkin Elmer Victor 5 luminometer. Thus, the functional NHR-promoter screen was used to observe the transcriptional activity of 29 promoters from various physiological pathways including inflammation, lipid and sugar metabolism, cholesterol transport, xenobiotic metabolism, and circadian rhythm.
(§2) The promoters that facilitate transcription of the indicated gene products that were tested using the protocols described herein are listed in the first row of the table. The nuclear hormone receptors and, where applicable, ligands that were assayed for their transcriptional effects on the promoters are listed in the first column of the table. The data represent the luciferase activity of each sample normalized to both the lacZ activity of that sample and to a control, e.g., no NHR or ligand, as customary in the art. As described previously, these normalizations allow the transcriptional activity of each reporter cell to be compared to other samples.
(§3) Tables 7-40 show the transcriptional effects of the hormone receptors, and, where applicable, ligands (orphan receptors are screened without ligand), on each individual promoter. […] The control data of each table are shown in their last rows.

mPOMC promoter = assay: NHR-promoter luciferase screen, mPOMC promoter; assay type: cell-based, mouse; conditions: for Results of assays of transcription factor (+/- ligand) with mPOMC: Table 6d, luciferase activity relative to control (control = 1.00); for Luc. act., normalized to lacZ / Normalized Luc. act., normalized to control: mPOMC promoter, HR component with or without ligand; for Normalized Luc. act., normalized to control: relative to control
Protocol: as §1, §2, §3

mDio1 promoter = assay: NHR-promoter luciferase screen, mDio1 promoter; assay type: cell-based, mouse; conditions: for Luc. act., normalized to lacZ / Normalized Luc. act., normalized to control: Dio1, HR component without or with its ligand; for mDio1 promoter reporter activity: transcription factor +/- ligand, control = 1.00
Protocol: as §1, §2, §3

mDio2 promoter = assay: NHR-promoter luciferase screen, mDio2 promoter; assay type: cell-based, mouse; conditions: for Luc. act., normalized to lacZ / Normalized Luc. act., normalized to control: Dio2, HR component without or with its ligand; for mDio2 promoter reporter activity: transcription factor +/- ligand, control = 1.00
Protocol: as §1, §2, §3

RevErba promoter = assay: NHR-promoter luciferase screen, RevErba (RVRa) promoter; assay type: cell-based; design: key to mRevErba promoter reporter activity / Normalized Luc. act., normalized to control: luciferase activity normalized to lacZ and to control (no NHR/ligand); conditions: for Luc. act., normalized to lacZ / Normalized Luc. act., normalized to control / negative reciprocal of normalized Luc. act. (fold repression; Table 33) / normalized Luc. act. on a logarithmic scale (column without head, Table 33): RVRa promoter; for Luc. act., normalized to lacZ / Normalized Luc. act., normalized to control: HR component without or with ligand; for negative reciprocal of normalized Luc. act. (fold repression; Table 33): given only where activity is below control; for normalized Luc. act. on a logarithmic scale (column without head, Table 33): log10 of activity normalized to control; for mRevErba promoter reporter activity: transcription factor +/- ligand, control = 1.00
Protocol: Briefly, there were co-expressed 50 ng of each NHR/NHR homodimer or NHR/RXR heterodimer with 100 ng promoter/luciferase construct and 50 ng of LacZ (as a control for transfection efficiency) in CV-1 cells using Fugene HD (Roche) as a transfection reagent (alternatively or additionally, a CMV-YFP construct can be used as a transfection control). Each of the nuclear hormone receptors that were used in these experiments was cloned into a pcDNA3.1 vector and comprised a C-terminally linked V5H6 tag.
as §2
The control data of each table are shown in their last rows.

| Substance | luciferase activity normalized to lacZ activity and to a control, mCAR (mCAR promoter) | Luc. act., normalized to lacZ (mCAR promoter) | Normalized Luc. act., normalized to control (mCAR promoter) | Results of assays of transcription factor (+/- ligand) with mPOMC (mPOMC promoter) | Luc. act., normalized to lacZ (mPOMC promoter) | Normalized Luc. act., normalized to control (mPOMC promoter) | Luc. act., normalized to lacZ (mDio1 promoter) | Normalized Luc. act., normalized to control (mDio1 promoter) | mDio1 promoter reporter activity (mDio1 promoter) | Luc. act., normalized to lacZ (mDio2 promoter) | Normalized Luc. act., normalized to control (mDio2 promoter) | mDio2 promoter reporter activity (mDio2 promoter) | Luc. act., normalized to lacZ (RevErba promoter) | Normalized Luc. act., normalized to control (RevErba promoter) | negative reciprocal of normalized Luc. act. (fold repression; Table 33) (RevErba promoter) | normalized Luc. act. on a logarithmic scale (column without head, Table 33) (RevErba promoter) | mRevErba promoter reporter activity (RevErba promoter) |
| --- | --- | --- | --- | --- | --- | --- | --- | --- | --- | --- | --- | --- | --- | --- | --- | --- | --- |
| GR: Glucocorticoid Receptor (NR3C1), cDNA driver | 0.23 | 8.74 | 0.2 | 0.50 | 34.5 | 0.5 | 2.5 | 0.6 | 0.55 | 13.2 | 0.8 | 0.84 | 12.3 | 0.4 | −2.269 | −0.36 | 0.44 |
| PNR: Photoreceptor-specific Nuclear Receptor (NR2E3), cDNA driver | 0.55 | 21.0 | 0.6 | 0.81 | 56.0 | 0.8 | 6.4 | 1.4 | 1.44 | 14.0 | 0.9 | 0.89 | 7.1 | 0.3 | −3.936 | −0.60 | 0.25 |
| AR: Androsterone Receptor (NR3C4), cDNA driver | 0.81 | 30.88 | 0.8 | 1.05 | 72.2 | 1.0 | 6.4 | 1.4 | 1.43 | 19.7 | 1.3 | 1.26 | 13.5 | 0.5 | −2.065 | −0.31 | 0.48 |
| VDR: Vitamin D Receptor (NR1I1), cDNA driver | 0.69 | 26.5 | 0.7 | 1.16 | 79.8 | 1.2 | 7.6 | 1.7 | 1.71 | 23.7 | 1.5 | 1.51 | 27.5 | 1.0 | −1.018 | −0.01 | 0.98 |
| RXRa: Retinoic X Receptor α (NR2B1), cDNA driver | 0.97 | 36.9 | 1.0 | 0.99 | 68.0 | 1.0 | 5.5 | 1.2 | 1.24 | 18.6 | 1.2 | 1.18 | 26.26 | 0.9 | −1.065 | −0.03 | 0.94 |
| NR4a1: NR4a1 (NR4A1; NUR77), nuclear hormone receptor cDNA driver | 0.94 | 35.66 | 0.9 | 3.58 | 246.9 | 3.6 | 10.9 | 2.4 | 2.45 | 21.8 | 1.4 | 1.39 | 24.6 | 0.9 | −1.1361 | −0.06 | 0.88 |
| ERR1: Estrogen Related Receptor α (NR3B1, ERRa), cDNA driver | 1.07 | 40.9 | 1.1 | 1.00 | 68.9 | 1.0 | 6.2 | 1.4 | 1.39 | 34.6 | 2.2 | 2.20 | 33.3 | 1.2 | – | 0.08 | 1.19 |
| SF-1: Steroidogenic Factor 1 (NR5A1, SF1), cDNA driver | 2.43 | 92.6 | 2.4 | 8.37 | 577.5 | 8.4 | 19.8 | 4.5 | 4.45 | 63.2 | 4.0 | 4.02 | 125.0 | 4.5 | – | 0.65 | 4.47 |
| PPARa: Peroxisome proliferator activated receptor α (NR1C1), cDNA driver | 0.88 | 33.6 | 0.9 | 1.13 | 77.6 | 1.1 | 4.7 | 1.1 | 1.06 | 23.0 | 1.5 | 1.46 | 52.1 | 1.9 | – | 0.27 | 1.86 |
| PPARg: Peroxisome proliferator activated receptor γ (NR1C3), cDNA driver | 1.25 | 47.7 | 1.3 | 1.57 | 108.0 | 1.6 | 9.9 | 2.2 | 2.23 | 35.5 | 2.3 | 2.26 | 40.6 | 1.5 | – | 0.16 | 1.45 |
| LXRa: Liver X Receptor α (NR1H3), cDNA driver | 0.78 | 29.5 | 0.8 | 1.70 | 117.1 | 1.7 | 4.7 | 1.1 | 1.06 | 19.0 | 1.2 | 1.21 | – | – | – | – | – |
